Patent US20220265603A1, “HEPATIC FIBROSIS-INHIBITING AGENT AND BROWN FAT CELL-ACTIVATING AGENT CONTAINING TAXIFOLIN” (NATIONAL HOSPITAL ORGANIZATION, priority 2019, published 2022)

Assays:
[1] = Blood concentration and biochemical test; assay type: in vivo, C57BL/6J mice; conditions: high-fat diet+3% taxifolin vs high-fat diet only, 12 weeks
From the text: insulin concentration: Ultra-sensitive mouse insulin ELISA kit (Morinaga Institute of Biological Science, Inc.) leptin concentration: mouse/rat leptin ELISA kit (Morinaga Institute of Biological Science, Inc.) adiponectin concentration: mouse/rat adiponectin ELISA kit (Otsuka Pharmaceutical Co., Ltd.) Triglyceride: Lab Assay Kit (Wako) TNF-α, IL-1β concentration: ELISA kit (Proteintech) ALT, AST levels: Assay Kit (Funakoshi Co., Ltd.)

[2] = system: Alzheimer's disease model mouse; conditions: cited from earlier work
[3] = system: F4/80, αSMA, TGF-β1 protein; test: Liver fibrosis index protein amount, Western blotting; assay type: in vivo, C57BL/6J mice; conditions: 12 weeks
From the text: F4/80, αSMA, TGF-β1 protein amount: Western blotting

UCP1 gene = UCP1 gene expression in brown adipose tissue, real-time RT PCR; assay type: in vivo, C57BL/6J mice; conditions: high-fat diet+3% taxifolin vs high-fat diet only, 12 weeks
From the text: (§1) (vii) Histological Analysis of the Liver Observation of morphology and fat accumulation: Hematoxylin Eosin (HE) staining Observation of fibrosis: Azan staining, SiriusRed staining, immunohistochemistry (anti-F4/80 antibody) (viii) Analysis of Brown Adipocytes and UCP1 Target tissue: Brown adipose tissue Target: UCP1 gene Means of analysis: real-time RT PCR analysis

ACC = test: Liver ACC phosphorylation, Western blotting; assay type: in vivo, C57BL/6J mice; conditions: 12 weeks
From the text: (§2) AMPK phosphorylation, ACC phosphorylation: Western blotting

AMPK = test: Liver AMPK phosphorylation, Western blotting; assay type: in vivo, C57BL/6J mice; conditions: 12 weeks
From the text: as §2

[4] = system: αSMA, PAI1, TGF-β1, Type1 collagen gene expression; test: Liver fibrosis index gene expression, RT PCR; assay type: in vivo, C57BL/6J mice; conditions: high-fat diet+3% taxifolin vs high-fat diet only, 12 weeks
From the text: αSMA, PAI1, TGF-β, 1-type Collagen gene expression: Real-time Quantitative RT PCR

[5] = system: type 1 diabetes model rat; conditions: non-patent document 11; cited from earlier work
[6] = system: liver fatty acid synthesis-related genes; test: Liver fatty acid synthesis-related gene expression, RT PCR; assay type: in vivo, C57BL/6J mice; conditions: high-fat diet+3% taxifolin vs high-fat diet only, 12 weeks
From the text: Srebp1c, Lxra, FAS, Scd1, PPARα, Cpt1a gene expression: Real-time Quantitative RT PCR

[7] = Food ingestion experiment: body weight and food intake; assay type: in vivo, C57BL/6J mice
Method: (§3) C57BL/6J mice were used as experimental animals. They were purchased at the age of 7 weeks from CLEA Japan, Inc. and randomly divided into four groups at the age of 8 weeks after 1 week of acclimation as shown in Table 1 below. They were allowed to eat and drink freely, and their food intake and body weight were measured once a week. Fasting blood glucose was measured on the first day of the feeding experiment and once every 4 weeks thereafter (at 4, 8, and 12 weeks after the start of the feeding). At the end of 12 weeks, an intraperitoneal glucose tolerance test (IPGTT) was performed to analyze glucose tolerance. Rectal temperature was also measured at 8 and 12 weeks follow-up (Table 2).

[8] = system: anti-oxidation enzymes (Mn-SOD, CuZn-SOD, Catalase, GP-x); test: Anti-oxidation enzyme gene expression, RT PCR; assay type: in vivo, C57BL/6J mice; conditions: 12 weeks
From the text: Anti-oxidation enzyme (Mn-SOD, CuZn-SOD, Catalase, GPx) gene expression: Real-time Quantitative RT PCR

Tissue weight at autopsy = assay type: in vivo, C57BL/6J mice; conditions: high-fat diet+3% taxifolin vs high-fat diet only, 12 weeks
Method: The last fasting blood glucose was measured 5 days after the day of PGTT, and all blood samples were collected under ether anesthesia, then the mice were euthanized by cervical dislocation, and samples were collected and partially weighed as shown in Table 3 below.

[9] = system: acute pancreatitis model mouse; conditions: non-patent document 10; cited from earlier work
liver tissue = test: Histological analysis of the liver (HE, Azan, SiriusRed, anti-F4/80); assay type: in vivo, C57BL/6J mice; conditions: 12 weeks
Method: as §1, with “Liver samples were partially trimmed for tissue observation, washed, immersed in 4% paraformaldehyde, and fixed at 4° C. overnight. The fixed samples were washed, dehydrated in an ascending ethanol series, and paraffin-embedded. (vii)” for “(vii)”

[10] = Rectal temperature measurement; assay type: in vivo, C57BL/6J mice; conditions: normal diet+3% taxifolin group
Method: as §3, with “They” for “C57BL/6J mice were used as experimental animals. They were purchased at the age of 7 weeks from CLEA Japan, Inc. and randomly divided into four groups at the age of 8 weeks after 1 week of acclimation as shown in Table 1 below. They”

[11] = system: fatty acid oxidation-related genes; test: Liver fatty acid oxidation-related gene expression, RT PCR; assay type: in vivo, C57BL/6J mice; conditions: high-fat diet+3% taxifolin vs high-fat diet only, 12 weeks
[12] = system: P38 MAPK, NF-κB p65, JNK phosphorylation; test: Inflammation induction signal pathway activity in liver, Western blotting; assay type: in vivo, C57BL/6J mice; conditions: high-fat diet+3% taxifolin vs high-fat diet only, 12 weeks
From the text: P38 MAPK phosphorylation, NF-κB p65 phosphorylation, JNK phosphorylation: Western blotting

[13] = Fasting blood glucose and intraperitoneal glucose tolerance test (IPGTT); assay type: in vivo, C57BL/6J mice; conditions: 12 weeks
Method: They were allowed to eat and drink freely, and their food intake and body weight were measured once a week. Fasting blood glucose was measured on the first day of the feeding experiment and once every 4 weeks thereafter (at 4, 8, and 12 weeks after the start of the feeding). At the end of 12 weeks, an intraperitoneal glucose tolerance test (IPGTT) was performed to analyze glucose tolerance. Rectal temperature was also measured at 8 and 12 weeks follow-up (Table 2). glucose tolerance: The area under the blood glucose curve (AUC) was calculated from the blood glucose fluctuation curve from fasting blood glucose level to 120 min after ingestion using the trapezoidal formula.

[14] = system: F4/80, TNF-α, IL-1β gene expression; test: Liver tissue inflammation index gene expression, RT PCR; assay type: in vivo, C57BL/6J mice; conditions: high-fat diet+3% taxifolin vs high-fat diet only, 12 weeks
From the text: F4/80, TNF-α, IL-1β gene expression: Real-time Quantitative RT PCR

[15] = non-patent document 9; cited from earlier work
lipid peroxidation = test: Blood and liver tissue lipid peroxidation (MDA) assay; assay type: in vivo, C57BL/6J mice; conditions: 12 weeks
From the text: Blood and liver tissue lipid peroxidation: Lipid Peroxidation (MDA) Colorimetric Assay Kit (BioVision, Inc.)

[16] = high-fat diet+3% taxifolin vs high-fat diet only
[17] = normal diet+3% taxifolin vs normal diet only
[18] = liver tissue, high-fat diet+3% taxifolin vs high-fat diet only

In the case of O=C1c2c(O)cc(O)cc2O[C@H](c2ccc(O)c(O)c2)[C@H]1O [taxifolin], the “blood ALT levels” value [1] is reported as “significantly decreased”, the blood insulin concentration [1] is reported as “significantly decreased” and the blood leptin concentration [1] is reported as “significantly decreased”. The “insulin resistance index (HOMA-R)” value [1] was “significantly decreased”, the liver triglyceride concentration [1] was “significantly decreased” and the “blood TNF-α concentration” value ([1]; P=0.076) was “tendency to decrease”. The blood triglyceride concentration ([1]; P=0.079) was “decreasing trend”, the “blood IL-1β concentration” value ([1]; P=0.0932) was “tendency to decrease” and the “amyloid P coagulation” value [2] was “suppression of amyloid P coagulation”. The brain blood flow [2] was “improvement of brain blood flow”, the “spatial recognition function in the water maze test” value [2] was “improvement of spatial recognition function” and the F4/80 protein amount [3, 16] was “significantly decreased”. For the same compound, the αSMA protein amount ([3]; high-fat diet+3% taxifolin vs high-fat diet only, P=0.054) was “decreasing trend”, the F4/80 protein amount [3, 17] was “decrease was significant” and the TGF-β1 protein amount [3, 17] was “significantly decreased”. For the same compound, the UCP1 gene expression (UCP1 gene) was “significantly increased”, the ACC phosphorylation (ACC; [16]) was “significantly increased” and the ACC phosphorylation (ACC; [17]) was “significantly increased”. For the same compound, the AMPK phosphorylation (AMPK; [16]) was “significantly increased”, the AMPK phosphorylation (AMPK; [17]) was “significantly increased” and the PAI1 gene expression [4] was “significantly decreased”. For the same compound, the TGF-β1 gene expression [4] was “significantly decreased”, the αSMA gene expression [4] was “significantly decreased” and the “Collagen 1 gene expression” value ([4]; P=0.07) was “decreasing trend”. For the same compound, the blood glucose [5] was “blood glucose-improving effects”, the FAS gene expression [6] was “significantly decreased” and the Lxrα gene expression [6] was “significantly decreased”. For the same compound, the Scd1 gene expression [6] was “significantly decreased”, the Srebp1c gene expression [6] was “significantly decreased” and the body weight ([7]; high-fat diet+3% taxifolin vs high-fat diet only, 4 weeks) was “significant difference”. For the same compound, the body weight ([7]; normal diet+3% taxifolin group vs all other groups, 8 weeks) was “significant difference in weight loss”, the body weight ([7]; normal diet+3% taxifolin group vs other groups, 12 weeks) was “no weight gain was observed” and the body weight ([7]; normal diet+3% taxifolin group, 6 weeks) was “significant difference in weight loss”. For the same compound, the Catalase gene expression [8, 16] was “significantly decreased”, the CuZn-SOD gene expression [8, 16] was “significantly decreased” and the GP-x gene expression [8, 16] was “significantly decreased”. The Mn-SOD gene expression [8, 16] was “significantly decreased”, the Mn-SOD gene expression [8, 17] was “significantly decreased” and the “brown adipose tissue weight (BAT weight)” value (Tissue weight at autopsy) was “significantly decreased”. For the same compound, the “epididymal fat weight (EPI WAT weight)” value (Tissue weight at autopsy) was “significantly decreased”, the liver weight (Tissue weight at autopsy) was “significantly decreased” and the anti-oxidation action [9] was “anti-oxidation action”. The “hepatic crown-like structures (hCLS), anti-F4/80 immunohistochemical staining” value (liver tissue; high-fat diet+3% taxifolin group vs high-fat diet-only group) was “hardly observed”, the “fat accumulation in liver, HE staining” value (liver tissue; [16]) was “markedly reduced” and the “amount of collagen stained blue, Azan staining” value (liver tissue; [18]) was “reduced”. The “amount of collagen stained red, Sirius Red staining” value (liver tissue; [18]) was “decreased”, the rectal temperature ([10]; 8 weeks) was “significantly higher” and the rectal temperature ([10]; 12 weeks) was “trend was also observed”. The Cd36 gene expression [11] was “significantly decreased”, the “NF-κB p65 phosphorylation” value [12] was “significantly decreased” and the “P38 MAPK phosphorylation” value ([12]; P=0.1045) was “decreasing trend”. For the same compound, the “c-Jun amino-terminal kinase (JNK) phosphorylation” value ([12]; P=0.1701) was “decreasing trend”, the “fasting blood glucose (FIG. 6A)” value [13, 16] was “significantly decreased” and the “blood glucose area under the curve (AUC)” value ([13]; high-fat diet+3% taxifolin vs high-fat diet only, IPGTT) was “significantly decreased”. For the same compound, the “blood glucose level at 60 min after start of intraperitoneal glucose tolerance test” value ([13]; normal diet+3% taxifolin group) was “significantly lower”, the “fasting blood glucose (FIG. 3A)” value ([13]; normal diet+3% taxifolin group) was “significantly lower” and the “fasting blood glucose (FIG. 6A)” value [13, 17] was “significantly decreased”. For the same compound, the F4/80 gene expression [14] was “significantly decreased”, the IL-1β gene expression [14] was “significantly decreased” and the TNF-α gene expression [14] was “significantly decreased”. The safety for intake [15] was “safe for intake”, the “concentration of MDA in the liver” value (lipid peroxidation; [16]) was “significantly decreased” and the “concentration of malondialdehyde (MDA) in blood” value (lipid peroxidation; [16]) was “significantly decreased”. For the same compound, the “concentration of MDA in the liver” value (lipid peroxidation; [17]) was “significantly decreased”.
